# From PubChem BioAssay AID330 (DTP/NCI, 2004)
# “And” between values parts separate entries of the source, which are not always exact repeats. Identical values can stand only once. Toxic doses and inconclusive results are not listed.
# Tested on: P388 leukemia ip, CD2F1 mice, survival T/C
# Test: NCI In Vivo Anticancer Drug Screen. Data for tumor model P388 Leukemia (intraperitoneal) in CD2F1 (CDF1) mice
# Details: endpoint: median survival time, higher = longer survival
# Method in brief: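 Mice carrying the transplanted tumor received test compound or vehicle. Survival was recorded in each group, and the value is the treated-group measurement divided by that of the vehicle-treated control group.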
# [1] = dose: 50.0 mg/kg/injection, schedule: Q01DX005 (ip), vehicle: saline with Tween-80
# [2] = dose: 100.0 mg/kg/injection, schedule: Q01DX005 (ip), vehicle: saline with Tween-80
# [3] = dose: 200.0 mg/kg/injection, schedule: Q01DX005 (ip), vehicle: saline with Tween-80
# [4] = dose: 50.0 mg/kg/injection, schedule: Q01DX005 (ip), vehicle: Klucel (hydroxypropylcellulose) (HPC)
# [5] = dose: 100.0 mg/kg/injection, schedule: Q01DX005 (ip), vehicle: Klucel (hydroxypropylcellulose) (HPC)
# [6] = dose: 200.0 mg/kg/injection, schedule: Q01DX005 (ip), vehicle: Klucel (hydroxypropylcellulose) (HPC)
smiles,measurement,setting,value
Nc1nc(N)c2cnnn2n1,T/C,[1],95 % of control
same,T/C,[2],102 % of control
same,T/C,[3],110 % of control
Cc1ccc(/C=C/C(=O)C(C)(C)CN(C)CCN(C)C)cc1,T/C,"dose: 60.0 mg/kg/injection, schedule: Q01DX005 (ip), vehicle: saline",103 % of control
same,T/C,"dose: 120.0 mg/kg/injection, schedule: Q01DX005 (ip), vehicle: saline",98 % of control
CN/N=C\c1cc2ccccc2c2ccccc12,T/C,[1],96 % of control
same,T/C,[2],91 % of control
same,T/C,[3],88 % of control
CC1=CNC(=O)CC(C)(C)C1,T/C,[1],105 % of control
same,T/C,[2],105 % of control
same,T/C,[3],104 % of control
Fc1ccccc1C=NC12CC3CC(CC(C3)C1)C2,T/C,"dose: 50.0 mg/kg/injection, schedule: Q01DX009 (ip), vehicle: saline with Tween-80",100 % of control
same,T/C,"dose: 100.0 mg/kg/injection, schedule: Q01DX009 (ip), vehicle: saline with Tween-80",102 % of control
same,T/C,"dose: 200.0 mg/kg/injection, schedule: Q01DX009 (ip), vehicle: saline with Tween-80",108 % of control
Cc1cc2c(=O)[nH]c(N)nc2nc1C,T/C,[1],100 % of control
same,T/C,[2],96 % of control
same,T/C,[3],102 % of control
COc1ccc(OC(N)=O)c2ccccc12,T/C,"dose: 25.0 mg/kg/injection, schedule: Q01DX001 (ip), vehicle: Klucel (hydroxypropylcellulose) (HPC)",100 % of control
same,T/C,"dose: 50.0 mg/kg/injection, schedule: Q01DX001 (ip), vehicle: Klucel (hydroxypropylcellulose) (HPC)",100 % of control
same,T/C,"dose: 100.0 mg/kg/injection, schedule: Q01DX001 (ip), vehicle: Klucel (hydroxypropylcellulose) (HPC)",108 % of control
O=C1c2sccc2[C@H](NC(=O)C(F)(F)F)[C@@H]1Cl,T/C,"dose: 60.0 mg/kg/injection, schedule: Q01DX005 (ip), vehicle: saline with Tween-80",100 % of control
same,T/C,"dose: 120.0 mg/kg/injection, schedule: Q01DX005 (ip), vehicle: saline with Tween-80",100 % of control
same,T/C,"dose: 240.0 mg/kg/injection, schedule: Q01DX005 (ip), vehicle: saline with Tween-80",100 % of control
CN(C)CCCNC(=S)C(=S)NCCCN(C)C,T/C,[4],97 % of control
same,T/C,[5],105 % of control
COc1cc2c(cc1OC)C(c1ccc([N+](=O)[O-])c(C)c1)=NCC2,T/C,[4],100 % of control
same,T/C,[5],100 % of control
same,T/C,[6],96 % of control
Cc1cccc(Nc2c(C(=O)O)cnc3cc4c(cc23)OCO4)c1,T/C,"dose: 60.0 mg/kg/injection, schedule: Q01DX005 (ip), vehicle: Klucel (hydroxypropylcellulose) (HPC)",94 % of control
same,T/C,"dose: 120.0 mg/kg/injection, schedule: Q01DX005 (ip), vehicle: Klucel (hydroxypropylcellulose) (HPC)",94 % of control
CCOC(=O)\C(C#N)=C/C=C/C(C)=C/Nc1ccc([N+](=O)[O-])cc1[N+](=O)[O-],T/C,[4],91 % of control
same,T/C,[5],91 % of control
same,T/C,[6],102 % of control
CC1=CC(=Nc2ccc(N(CCCl)CCCl)cc2)C=C(C)C1=O,T/C,"dose: 3.12 mg/kg/injection, schedule: Q01DX009 (ip), vehicle: Klucel (hydroxypropylcellulose) (HPC)",105 % of control
same,T/C,"dose: 12.5 mg/kg/injection, schedule: Q01DX009 (ip), vehicle: Klucel (hydroxypropylcellulose) (HPC)",186 % of control
same,T/C,"dose: 12.5 mg/kg/injection, schedule: Q01DX009 (ip), vehicle: other",153 % of control
same,T/C,"dose: 12.5 mg/kg/injection, schedule: Q01DX009 (ip), vehicle: saline",104 % of control and 118 % of control
same,T/C,"dose: 25.0 mg/kg/injection, schedule: Q01DX009 (ip), vehicle: Klucel (hydroxypropylcellulose) (HPC)",173 % of control and 186 % of control
same,T/C,"dose: 25.0 mg/kg/injection, schedule: Q01DX009 (ip), vehicle: other",235 % of control
same,T/C,"dose: 25.0 mg/kg/injection, schedule: Q01DX009 (ip), vehicle: saline",114 % of control
same,T/C,"dose: 50.0 mg/kg/injection, schedule: Q01DX009 (ip), vehicle: Klucel (hydroxypropylcellulose) (HPC)",170 % of control and 186 % of control
same,T/C,"dose: 50.0 mg/kg/injection, schedule: Q01DX009 (ip), vehicle: other",91 % of control
same,T/C,"dose: 50.0 mg/kg/injection, schedule: Q01DX009 (ip), vehicle: saline",157 % of control
same,T/C,"dose: 100.0 mg/kg/injection, schedule: Q01DX009 (ip), vehicle: saline",166 % of control
